{"source": "patent US20240279236A1", "about": "“COMPOUNDS AND METHODS OF TREATING TUBERCULOSIS” (Fimbrion Therapeutics, Inc., priority 2021, published 2024)"}
{"tested_on": "WT Mtb Erdman strain", "experiment": "Microplate Alamar Blue Assay (MABA), Mtb growth inhibition", "format": "cell-based, Mycobacterium tuberculosis", "details": "Mycobacterium tuberculosis, ERDMAN, 168 h, Middlebrook 7H9 media, 7 days at 37° C. in 5% CO2", "units": {"IC50": "nM"}}
{"smiles": "CCc1nc(NCCCc2ccc(-c3ccc(OC(F)(F)F)c(F)c3)cc2)c2cc(C)sc2n1", "note": "[Example 306, 2-ethyl-N-(3-(3′-fluoro-4′-(trifluoromethoxy)-[1,1′-biphenyl]-4-yl)propyl)-6-methylthieno[2,3-d]pyrimidin-4-amine]", "IC50": 47}
{"smiles": "CCc1nc(NCCCc2ccc(-c3c(Cl)cccc3Cl)cc2)c2cc(C)sc2n1", "note": "[Example 307, N-(3-(2′,6′-dichloro-[1,1′-biphenyl]-4-yl)propyl)-2-ethyl-6-methylthieno[2,3-d]pyrimidin-4-amine]", "IC50": 830}
{"smiles": "CCc1nc(NCCCc2ccc(-c3cc(Cl)cc(Cl)c3)cc2)c2cc(C)sc2n1", "note": "[Example 308, N-(3-(3′,5′-dichloro-[1,1′-biphenyl]-4-yl)propyl)-2-ethyl-6-methylthieno[2,3-d]pyrimidin-4-amine]", "IC50": 240}
{"smiles": "CCc1nc(NCCCc2ccc(-c3ccc(F)c(Cl)c3)cc2)c2cc(C)sc2n1", "note": "[Example 309, N-(3-(3′-chloro-4′-fluoro-[1,1′-biphenyl]-4-yl)propyl)-2-ethyl-6-methylthieno[2,3-d]pyrimidin-4-amine]", "IC50": 100}
{"smiles": "CCc1nc(NCCCc2ccc(-c3cc(Cl)ccc3Cl)cc2)c2cc(C)sc2n1", "note": "[Example 310, N-(3-(2′,5′-dichloro-[1,1′-biphenyl]-4-yl)propyl)-2-ethyl-6-methylthieno[2,3-d]pyrimidin-4-amine]", "IC50": 380}
{"smiles": "CCc1nc(NCCCc2ccc(-c3ccc(C(F)(F)F)cc3)cc2)c2cc(C)sc2n1", "note": "[Example 311, 2-ethyl-6-methyl-N-(3-(4′-(trifluoromethyl)-[1,1′-biphenyl]-4-yl)propyl)thieno [2,3-d]pyrimidin-4-amine]", "IC50": 27}
{"smiles": "Cc1cc2c(NCCCCc3ccc(-c4ccc(OC(F)(F)F)cc4)cc3)nc(-c3ccoc3)nc2s1", "note": "[Example 312, 2-(furan-3-yl)-6-methyl-N-(4-(4′-(trifluoromethoxy)-[1,1′-biphenyl]-4-yl)butyl)thieno [2,3-d]pyrimidin-4-amine]", "IC50": 380}
{"smiles": "Cc1cc2c(NCCCc3ccc(-c4ccc(OC(F)(F)F)cc4)cc3F)nc(-c3ccoc3)nc2s1", "note": "[Example 313, N-(3-(3-fluoro-(trifluoromethoxy)-[1,1′-biphenyl]-4-′-yl)propyl)-2-(furan-3-yl)-6-methylthieno[2,3-d]pyrimidin-4-amine]", "IC50": 50}
{"smiles": "Cc1cc2c(NCCCc3ccc(-c4ccc([N+](=O)[O-])cc4)cc3)nc(N(C)C)nc2s1", "note": "[Example 314, N2,N2,6-trimethyl-N4-(3-(4′-nitro-[1,1′-biphenyl]-4-yl)propyl)thieno [2,3-d]pyrimidine-2,4-diamine]", "IC50": 3}
{"smiles": "Cc1cc2c(NCCCc3ccc(-c4ccc(OC(F)(F)F)cc4)c(F)c3)nc(-c3ccoc3)nc2s1", "note": "[Example 315, N-(3-(2-fluoro-4′-(trifluoromethoxy)-[1,1′-biphenyl]-4-yl)propyl)-2-(furan-3-yl)-6-methylthieno[2,3-d]pyrimidin-4-amine]", "IC50": 12}
{"smiles": "COC(=O)c1ccc(-c2ccc(CCCNc3nc(-c4ccoc4)nc4sc(C)cc34)cc2)cc1", "note": "[Example 318, methyl 4′-(3-((2-(furan-3-yl)-6-methylthieno[2,3-d]pyrimidin-4-yl)amino)propyl)-[1,1′-biphenyl]-4-carboxylate]", "IC50": 20}
{"smiles": "Cc1cc2c(NCCCc3ccc(-c4ccc(F)cc4)cc3)nc(-c3ccoc3)nc2s1", "note": "[Example 322, N-(3-(4′-fluoro-[1,1′-biphenyl]-4-yl)propyl)-2-(furan-3-yl)-6-methylthieno[2,3-d]pyrimidin-4-amine]", "IC50": 6}
{"smiles": "Cc1cc2c(NC/C=C/c3ccc(-c4ccc(OC(F)(F)F)cc4)cc3)nc(-c3ccoc3)nc2s1", "note": "[Example 323, 2-(furan-3-yl)-6-methyl-N-[(2E)-3-[4′-(trifluoromethoxy)-[1,1′-biphenyl]-4-yl]prop-2-en-1-yl]thieno[2,3-d]pyrimidin-4-amine]", "IC50": 37}
{"smiles": "Cc1cc2c(NCCCc3ccc(-c4ccnc(C(F)(F)F)c4)cc3)nc(-c3ccoc3)nc2s1", "note": "[Example 324, 2-(furan-3-yl)-6-methyl-N-(3-(4-[2-(trifluoromethyl)pyridin-4-yl]phenyl)propyl) thieno[2,3-d]pyrimidin-4-amine]", "IC50": 160}
